Assay results reported in publication PMC7005675 (Molecular Cell, 2020).

Molecular target: T1, RsiG (Streptomyces venezuelae, UniProt F2RFR7)
T1 sequence (F2RFR7 1-199): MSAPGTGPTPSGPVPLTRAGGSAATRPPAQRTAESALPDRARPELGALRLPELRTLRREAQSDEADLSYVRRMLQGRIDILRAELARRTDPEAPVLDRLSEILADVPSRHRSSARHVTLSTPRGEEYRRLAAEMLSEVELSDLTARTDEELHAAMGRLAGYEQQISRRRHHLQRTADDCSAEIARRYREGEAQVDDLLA
Assay: fluorescence polarization
Type: binding
Details: labelled compound; 150 mM NaCl, 25 mM Tris-HCl pH 7.5, 25°C; 1 nM probe

Kd: 6.5 ± 1.5 µM
Substance: 2′-O-(6-[Fluoresceinyl]aminohexylcarbamoyl)-cyclic diguanosine monophosphate [2′-Fluo-AHC-c-di-GMP]
